Paper PMC11239830, “Synthetic macrolides overcoming MLSBK-resistant pathogens” (Cell Discovery, 2024)
In brackets after ≈: the same amount, converted by molar mass. Read-outs that look alike come from different tables or passages of the source.

Legend:
S. pneumoniae = assay: MIC, broth microdilution; type: cell-based, Streptococcus pneumoniae
Procedure, shortened: (§1)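 Minimum inhibitory concentrations were measured by broth microdilution following CLSI guidelines. Plates were incubated at 37 °C for 16–20 h before results were read and recorded, and each determination was repeated at least three times.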

S. pyogenes = assay: MIC, broth microdilution; type: cell-based, Streptococcus pyogenes
Procedure, shortened: as §1

S. aureus = assay: MIC, broth microdilution; type: cell-based, Staphylococcus aureus
Procedure, shortened: as §1

M. catarrhalis = assay: MIC, broth microdilution; type: cell-based, Moraxella catarrhalis; settings: Moraxella catarrhalis; M. catarrhalis 13L332, Ery-S; read-out: MIC
Description: MICs were determined by the microdilution method according to the Clinical and Laboratory Standards Institute guidelines. Briefly, the stock solution of compounds and the reference antibiotics were diluted 2-fold in sterile 96-well plates with cation-adjusted Mueller-Hinton broth, and mixed with CAMHB-containing bacteria to give a final inoculum of 5 × 10^5 CFU/mL for broth microdilution experiments. […] Finally, the 96-well plates were incubated at 37 °C for 16–20 h to observe and record the results. The lowest concentration at which no bacterial growth could be observed visually was identified as the MICs of the compounds. The assay for MICs was replicated at least three times.

[1] = tested on: 15B196 S. aureus ribosomes (A2058-methylated); assay: PURE in vitro translation inhibition assay; type: biochemical, Staphylococcus aureus; settings: mean ± SD
Description: (§2) To validate the in vitro activity of our compounds, we employed an in vitro reconstituted E. coli Protein synthesis Using a Recombinant Elements (PURE) translation system, substituting E. coli ribosomes with the purified S. aureus ribosomes.
(§3) 5 μL of PURE reaction mix that translates a gene encoding the Nanoluc luciferase was set up in the presence or absence of tested compounds. Protein synthesis was initiated by incubating reactions at 37 °C for 60 min and stopped by placing on ice for 5 min. Luciferase activity was quantified using the Nano-Glo luciferase assay system and read on a GloMax 20/20 luminometer (Promega, USA). For each compound, the in vitro translation inhibition assay was performed in three biological triplicates over a range of concentrations from 0.001 μM to 1000 μM. A compound-free control was used to normalize luminescence measurements. The calculated luminescence percentages were plotted against compound concentrations on a semilog scale using GraphPad Prism.

WT S. aureus ribosomes = assay: PURE in vitro translation inhibition assay; type: biochemical, Staphylococcus aureus; settings: mean ± SD
Description: as §2, §3

[2] = CCK-8 assay for cytotoxicity; type: cell-based, human
Description: (§4) HepG2 cells (6 × 10^3) and HEK293T cells (4 × 10^3) were seeded into 96-well plates in 90 μL of DMEM medium containing 10% FBS per well. All test compounds were formulated as 10 mM stock solutions in DMSO (final concentration ≤ 0.5%). After overnight incubation, the test compound stock solution was diluted with DMEM medium containing 10% FBS to every target concentration, and 10 μL of each was added to each well. Three parallel experiments were set up for each compound. After incubation for 48 h, 10 μL of cell counting kit-8 (CCK-8) reagent was added to each well in sequence according to the manufacturer’s instructions. After incubating in a 37 °C incubator for 1–2 h, the absorbance was measured at a wavelength of 450 nm, and detected by ThermoScientific Multiskan FC (ThermoFisher Scientific, USA). This experiment was independently repeated three times. The data were processed by GraphPad Prism.

HepG2 cells = assay: CCK-8 assay for cytotoxicity; type: cell-based, human; settings: HepG2, 5 μM, 48 h
Description: as §4

[3] = CCK-8 assay for cytotoxicity; type: cell-based, human; settings: human, HEK293T cells, HEK293T cell viability
Description: as §4, with “All test compounds were formulated as 10 mM stock solutions in DMSO (final concentration ≤ 0.5%).” left out, “After incubating in a 37 °C incubator for 1–2 h, the absorbance was measured at a wavelength of 450 nm, and detected by ThermoScientific Multiskan FC (ThermoFisher Scientific, USA).” left out

[4] = Staphylococcus aureus, MRSA, MRSA (13)
[5] = Staphylococcus aureus, i-MLSB S. aureus (10)

CC[C@H]1OC(=O)[C@H](C)[C@@H](OC(=O)NCCCCCCC#Cc2ccc3c(=O)c(C(=O)O)cn(C)c3c2)[C@H](C)[C@@H](O[C@@H]2O[C@H](C)C[C@H](N(C)C)[C@H]2O)[C@](C)(OC)C[C@@H](C)C(=O)[C@H](C)[C@H]2NC(=O)O[C@@]21C [MCX-219]
MIC (S. pneumoniae; S. pneumoniae 07P390, c-ermB, listed as 88g): 0.06 µg/mL (≈ 0.062 µM) | MIC (S. pneumoniae; S. pneumoniae 21C315, Clinical, c-ermB): 0.016 µg/mL (≈ 0.0165 µM) | MIC (S. pneumoniae; S. pneumoniae 21D016, Clinical, c-ermB, mef): 0.03 µg/mL (≈ 0.031 µM) | MIC (S. pneumoniae; S. pneumoniae 21D020, Clinical, c-ermB, mef): 0.03 µg/mL (≈ 0.031 µM) | MIC (S. pneumoniae; S. pneumoniae 21M277, Clinical, c-ermB): 0.25 µg/mL (≈ 0.258 µM) | MIC (S. pneumoniae; S. pneumoniae 21Q352, Clinical, i-MLSB): ≤ 0.002 µg/mL | MIC (S. pneumoniae; S. pneumoniae 21Q353, Clinical, i-MLSB): ≤ 0.002 µg/mL | MIC (S. pneumoniae; S. pneumoniae 21W257, Clinical, c-ermB, mef): 0.016 µg/mL (≈ 0.0165 µM) | MIC (S. pneumoniae; S. pneumoniae 21X435, Clinical): ≤ 0.002 µg/mL | MIC (S. pneumoniae; S. pneumoniae ATCC49619): ≤ 0.002 µg/mL | MIC (S. pneumoniae; Streptococcus pneumoniae, ATCC49619, S. pneumoniae ATCC49619, Ery-S, read-out: MIC): ≤ 0.008 µg/mL | MIC (S. pneumoniae; Streptococcus pneumoniae, S. pneumoniae 05O173, c-ermB, mef, read-out: MIC): 2 µg/mL (≈ 2.07 µM) | MIC (S. pneumoniae; Streptococcus pneumoniae, S. pneumoniae 07P390, c-ermB, read-out: MIC): 0.03 µg/mL (≈ 0.031 µM) | MIC (S. pneumoniae; Streptococcus pneumoniae, S. pneumoniae PU09, mef, read-out: MIC): ≤ 0.008 µg/mL | MIC (S. pyogenes; S. pyogenes 01-968, Clinical, i-ermB): ≤ 0.002 µg/mL | MIC (S. pyogenes; S. pyogenes 12-207, Clinical, mef): 0.016 µg/mL (≈ 0.0165 µM) | MIC (S. pyogenes; S. pyogenes 21C303, Clinical, c-ermB): 0.5 µg/mL (≈ 0.517 µM) | MIC (S. pyogenes; S. pyogenes 21D184, Clinical, c-ermB): 0.5 µg/mL (≈ 0.517 µM) | MIC (S. pyogenes; S. pyogenes 21D199, Clinical, c-ermB): 1 µg/mL (≈ 1.03 µM) | MIC (S. pyogenes; S. pyogenes 21D200, Clinical, c-ermB): 0.25 µg/mL (≈ 0.258 µM) | MIC (S. pyogenes; S. pyogenes 21K003, Clinical, mef): 0.06 µg/mL (≈ 0.062 µM) | MIC (S. pyogenes; S. pyogenes 21M063, Clinical, c-ermB): 0.25 µg/mL (≈ 0.258 µM) | MIC (S. pyogenes; S. pyogenes 21W186, Clinical, c-ermTR): 4 µg/mL (≈ 4.14 µM) | MIC (S. pyogenes; Streptococcus pyogenes, S. pyogenes 01-968, i-ermTR (Table S5), read-out: MIC): ≤ 0.008 µg/mL | MIC (S. pyogenes; Streptococcus pyogenes, S. pyogenes 12-206, c-ermB (Table S5), read-out: MIC): 0.12 µg/mL (≈ 0.124 µM) | MIC (S. pyogenes; Streptococcus pyogenes, S. pyogenes 12-206, c-ermTR, read-out: MIC): 0.06 µg/mL (≈ 0.062 µM) | MIC (S. aureus; S. aureus 15B196, Clinical, MRSA, c-ermB): 1 µg/mL (≈ 1.03 µM) | MIC (S. aureus; S. aureus 21B200, Clinical, MRSA, c-ermB): 4 µg/mL (≈ 4.14 µM) | MIC (S. aureus; S. aureus 21B207, Clinical, MRSA, c-ermB): 2 µg/mL (≈ 2.07 µM) | MIC (S. aureus; S. aureus 21B212, Clinical, MSSA, i-ermC): 0.25 µg/mL (≈ 0.258 µM) | MIC (S. aureus; S. aureus 21C173, Clinical, MSSA, i-ermC): 0.25 µg/mL (≈ 0.258 µM) | MIC (S. aureus; S. aureus 21C174, Clinical, MSSA, c-ermB): 0.25 µg/mL (≈ 0.258 µM) | MIC (S. aureus; S. aureus 21C187, Clinical, MRSA, i-ermA): 0.12 µg/mL (≈ 0.124 µM) | MIC (S. aureus; S. aureus 21D112, Clinical, MSSA, c-ermB): 16 µg/mL (≈ 16.5 µM) | MIC (S. aureus; S. aureus 21D115, Clinical, MSSA, i-ermC): 0.25 µg/mL (≈ 0.258 µM) | MIC (S. aureus; S. aureus 21F198, Clinical, MRSA, c-ermB): 1 µg/mL (≈ 1.03 µM) | MIC (S. aureus; S. aureus 21F206, Clinical, MSSA, c-ermB): 8 µg/mL (≈ 8.27 µM) | MIC (S. aureus; S. aureus 21F207, Clinical, MRSA, i-ermC): 0.25 µg/mL (≈ 0.258 µM) | MIC (S. aureus; S. aureus 21K194, Clinical, MSSA, i-ermC): 0.06 µg/mL (≈ 0.062 µM) | MIC (S. aureus; S. aureus 21N354, Clinical, MRSA, c-ermB): 1 µg/mL (≈ 1.03 µM) | MIC (S. aureus; S. aureus 21P191, Clinical, MSSA, c-ermC): 16 µg/mL (≈ 16.5 µM) | MIC (S. aureus; S. aureus 21P404, Clinical, MSSA, i-ermC): 0.25 µg/mL (≈ 0.258 µM) | MIC (S. aureus; S. aureus 21P407, Clinical, MRSA, c-ermB): 8 µg/mL (≈ 8.27 µM) | MIC (S. aureus; S. aureus 21Q253, Clinical, MRSA, c-ermB): 1 µg/mL (≈ 1.03 µM) | MIC (S. aureus; S. aureus 21R216, Clinical, MSSA, c-ermC): 16 µg/mL (≈ 16.5 µM) | MIC (S. aureus; S. aureus 21T141, Clinical, MRSA, c-ermB): 1 µg/mL (≈ 1.03 µM) | MIC (S. aureus; S. aureus 21X388, Clinical, i-ermA (MRSA in Table S9, MSSA in Fig. 2a)): 0.06 µg/mL (≈ 0.062 µM) | MIC (S. aureus; S. aureus 21Y223, Clinical, MRSA, i-ermC): 0.25 µg/mL (≈ 0.258 µM) | MIC (S. aureus; S. aureus ATCC29213): 0.12 µg/mL (≈ 0.124 µM) | MIC (S. aureus; S. aureus PU32, Clinical, MRSA, i-ermA): 0.25 µg/mL (≈ 0.258 µM) | MIC50 (S. aureus; [4]): 1 µg/mL (≈ 1.03 µM) | MIC90 (S. aureus; [4]): 4 µg/mL (≈ 4.14 µM) | MIC50 (S. aureus; Staphylococcus aureus, MSSA, MSSA (10)): 0.25 µg/mL (≈ 0.258 µM) | MIC (S. aureus; Staphylococcus aureus, S. aureus 15B196, c-ermB, read-out: MIC): 1 µg/mL (≈ 1.03 µM) | MIC (S. aureus; Staphylococcus aureus, S. aureus PU32, i-ermA, read-out: MIC): 0.25 µg/mL (≈ 0.258 µM) | MIC50 (S. aureus; Staphylococcus aureus, c-MLSB (constitutive) S. aureus (13)): 2 µg/mL (≈ 2.07 µM) | MIC90 (S. aureus; Staphylococcus aureus, c-MLSB S. aureus (13)): 16 µg/mL (≈ 16.5 µM) | MIC50 (S. aureus; [5]): 0.25 µg/mL (≈ 0.258 µM) | MIC90 (S. aureus; [5]): 0.25 µg/mL (≈ 0.258 µM) | MIC90 (S. aureus; Staphylococcus aureus, MSSA (10)): 16 µg/mL (≈ 16.5 µM) | MIC (M. catarrhalis): 0.5 µg/mL (≈ 0.517 µM) | IC50 [1]: 0.57 ± 0.14 µM | IC50 (WT S. aureus ribosomes): 0.72 ± 0.37 µM | CC50 at 48 h ([2]; human HepG2 and HEK293T cells, read-out: CC50 (cytotoxicity)): 26 to 29 µM | CC50 at 48 h ([2]; human, HepG2 cells, HepG2 cell viability, 48 h, read-out: CC50): 28.9 ± 2.68 µM | cytotoxicity at 5 μM (HepG2 cells): significantly reduced cytotoxicity compared to TcmX | CC50 at 48 h [3]: 25.7 ± 4.08 µM
